In patent publication EP0006061A1, “Medicinal compound consisting of a derivative of cyclopentyl aldehyde” (INSTITUT DE RECHERCHES CHIMIQUES ET BIOLOGIQUES APPLIQUEES …, priority 1978, dated 1979):
Values after ≈ are worked out from the molar mass of the structure shown.

Key:
iléon isolé de cobaye = assay: antispasmodic activity in vitro against histamine on isolated ileum; assay type: cell-based; conditions: isolated guinea pig ileum, read-out: DE - 50 (the source's name)
Protocol: (§1) Les essais pharmaceutiques qui ont été mis en oeuvre avec les produits des exemples 1 et 4, ont été résumés ci-après : • 1°/ essais avec l'exemple 1 • a/ activité bactériostatique L' α-(2-formyl-3-méthyl-cyclopentyl)-acétal- déhyde inhibe les bactéries Gram (+) et Gram (-). Les CMI (concentration minimale inhibitrice) sont les suivantes : 0,75 mg/ml sur Staphylococcus aureus Londres, 1,2 mg/ml sur Escherichia coli, et 1,5 mg/ml sur Proteus • b/ activité antispasmodique : Les DE-50 du produit de l'exemple 1 ont été déterminés • (i) in vitro sur iléon isolé de cobaye vis à vis de l'histamine : DE - 50 = 50 γ/ml; • (ii) in vivo sur l'animal vivant selon la méthode de KONZETT & ROESLLER : DE - 50 = 2,6 mg/kg par administration i.v. • c/ activité antianaphylactique : Des cobayes mâles sont sensibilisés par deux injections de 0,5 ml d'une solution d'albumine à 2 g/1, à deux jours d'intervalle. Quatre semaines aprës,le choc anaphylactique mortel est provoqué par injection i.v. de 0,2 ml d'une solution aqueuse d'ovalbumine à 2 g/1. Les produits à tester sont administrés 30 mn avant (administration i.p.) ou en même temps (administration i.v.) que l'injection provoquant ledit choc anaphylactique. […]

Escherichia coli = assay: bacteriostatic activity (MIC); assay type: cell-based; conditions: read-out: CMI (concentration minimale inhibitrice)
Protocol: (§2) Les essais pharmaceutiques qui ont été mis en oeuvre avec les produits des exemples 1 et 4, ont été résumés ci-après : • 1°/ essais avec l'exemple 1 • a/ activité bactériostatique L' α-(2-formyl-3-méthyl-cyclopentyl)-acétal- déhyde inhibe les bactéries Gram (+) et Gram (-). Les CMI (concentration minimale inhibitrice) sont les suivantes : 0,75 mg/ml sur Staphylococcus aureus Londres, 1,2 mg/ml sur Escherichia coli, et 1,5 mg/ml sur Proteus • b/ activité antispasmodique : Les DE-50 du produit de l'exemple 1 ont été déterminés • (i) in vitro sur iléon isolé de cobaye vis à vis de l'histamine : DE - 50 = 50 γ/ml; • (ii) in vivo sur l'animal vivant selon la méthode de KONZETT & ROESLLER : DE - 50 = 2,6 mg/kg par administration i.v. • c/ activité antianaphylactique : Des cobayes mâles sont sensibilisés par deux injections de 0,5 ml d'une solution d'albumine à 2 g/1, à deux jours d'intervalle. Quatre semaines aprës,le choc anaphylactique mortel est provoqué par injection i.v. de 0,2 ml d'une solution aqueuse d'ovalbumine à 2 g/1. Les produits à tester sont administrés 30 mn avant (administration i.p.) ou en même temps (administration i.v.) que l'injection provoquant ledit choc anaphylactique. Les résultats sont donnés dans le tableau I pour le produit de l'exemple 1 et la Prométhazine en tant que produit de référence : [formula] • 2°/ essais avec le produit de l'exemple 4 (constitué par un mélange de 87 % en poids d'isomère "cis-trans" et 13 % en poids d'isomère "trans-cis). • a/ activité bactériostatigue : Le produit de l'exemple 4 inhibe les bactéries Gram (+) et Gram (-). Ses CMI sont les suivantes : • 1,5 mg/m sur Staphylococcus aureus, Londres • 1 mg/ml sur Escherichia coli (souche 548) • 1,75 mg/ml sur Proteus vulgaris (souche 1557) • 2,5 mg/ml sur Klebsiella pneumoniae (souche 433), • 1 mg/ml sur Salmonella typhi murium (souche IP), • 1,5 mg/ml sur Staphylococcus aureus (souche 634), • 1,25 mg/ml sur Streptococcus (souche 1178) • 1,25 mg/ml sur Bacillus substilis, (les souches 548, 1557, 433, 634, et 1178 étant celles du catalogue de la collection du "Centre International de Distribution de Souches et d'Information sur les Types Microbiens" de . Lausanne, et la souche "IP" provenant de l'Institut Pasteur de Paris. • b/ activité bactéricide Le produit de l'exemple 4 détruit les bactéries Gram (+) et Gram (-). Ses CMB (concentration minimalebactéricide) déterminées sur milieu solide (quand moins de 0,01% de germes survivent) sont : • 1,75 mg/ml sur Staphylococcus aureus Londres • 1,5 mg/ml sur Escherichia coli (souche 548) • 2 mg/ml sur Proteus vulgaris (souche 1557) • 3 mg/ml sur Klebsiella pneumoniae (souche 433), • 1,25 mg/ml sur Salmonella typhi murium (souche I.P.) • 1,75 mg/ml sur Staphylococcus aureus (souche 634) • 2 mg/ml sur Streptococcus (souche 1178) • 2,5 mg/ml sur Bacillus substilis. • c/ activité bronchospatique Des cobayes mâles ou femelles [20 animaux (pesant 300-500 g) par dose et par produit à tester] sont exposés à un aérosol de l'exemple 4 (50 g/l en solution eau-éthanol) ou de Prométhazine (produit de référence) pendant 10 mn.

[1] = system: Staphylococcus aureus Londres; assay: bacteriostatic activity (MIC); assay type: cell-based; conditions: read-out: CMI (concentration minimale inhibitrice)
Protocol: as §2

Proteus = assay: bacteriostatic activity (MIC); assay type: cell-based; conditions: read-out: CMI (concentration minimale inhibitrice)
Protocol: as §2

l'animal vivant = assay: antispasmodic activity in vivo, method of KONZETT & ROESLLER; conditions: iv, i.v. administration, read-out: DE - 50 (the source's name)
Protocol: as §1

How did the EC50 (iléon isolé de cobaye) turn out when `CC1CCC(CC=O)C1C=O` (stereo not drawn) [Ex. 1, α-(2-formyl-3-méthyl-cyclopentyl)-acétaldéhyde] was run?
Its EC50 is 50 µg/mL (≈ 0.324 mM).

What about the MIC (Escherichia coli) of the same compound?
The MIC was 1200 µg/mL (≈ 7.78 mM).

And the MIC [1]?
The MIC was 750 µg/mL (≈ 4.86 mM).

What about the MIC (Proteus) of the same compound?
Its MIC is 1500 µg/mL (≈ 9.73 mM).

What about the ED50 (l'animal vivant) of the same compound?
The ED50 was 2.6 mg/kg.
